Measured values reported in the Kinase Knowledgebase extract (Sharma et al. 2016).

Molecular target: MAPK14 (human) (UniProt Q16539)
Assay: Inhibition of MAPK14 Kinase Activity

Chain of MAPK14 (human) (Q16539 whole entry, looked up): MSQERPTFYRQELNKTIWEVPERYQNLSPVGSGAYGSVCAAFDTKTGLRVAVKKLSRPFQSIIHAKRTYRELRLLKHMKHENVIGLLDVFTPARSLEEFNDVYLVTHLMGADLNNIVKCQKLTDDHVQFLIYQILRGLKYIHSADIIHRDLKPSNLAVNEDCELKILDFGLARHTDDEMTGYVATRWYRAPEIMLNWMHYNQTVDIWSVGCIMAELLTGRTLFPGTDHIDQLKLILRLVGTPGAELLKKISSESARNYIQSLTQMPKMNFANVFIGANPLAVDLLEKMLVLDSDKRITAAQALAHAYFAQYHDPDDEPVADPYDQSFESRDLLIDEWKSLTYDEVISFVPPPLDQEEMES

Structure (SMILES)	IC50 [µM]
Cc1cc(C(=O)c2c(N)sc3c2ccc(=O)n3CC2CC2)ccc1F	< 2
Nc1sc2c(ccc(=O)n2-c2ccccc2)c1C(=O)c1ccc(OC(F)(F)F)cc1	< 2
Cc1cc(C(=O)c2c(N)sc3c2ccc(=O)n3-c2ccc(F)cc2)ccc1F	< 2
Nc1sc2c(ccc(=O)n2-c2ccccc2)c1C(=O)c1ccc(C(F)(F)F)cc1	< 2
Cc1cc(C(=O)c2c(NC(=O)C3CCN(C)CC3)sc3c2ccc(=O)n3-c2ccccc2)ccc1F	< 2
Cc1cc(C(=O)c2c(NC(=O)NCC(C)(C)O)sc3c2ccc(=O)n3-c2ccccc2)ccc1F	< 2
N#Cc1ccc(C(=O)c2c(N)sc3c2ccc(=O)n3-c2ccccc2)cc1	< 2
Cc1cc(C(=O)c2c(NC(=O)C3CCNCC3)sc3c2ccc(=O)n3-c2ccccc2F)ccc1F	< 2
Cc1cc(C(=O)c2c(NC3CN(C)C3)sc3c2ccc(=O)n3-c2ccccc2)ccc1F	< 2
Cc1cc(C(=O)c2c(NC3CNC3)sc3c2ccc(=O)n3CC2CC2)ccc1F	< 2
Cc1ccc(C(=O)c2c(N)sc3c2ccc(=O)n3-c2ccccc2)cc1C	< 2
Cc1cc(C(=O)c2c(N)sc3c2ccc(=O)n3-c2ccccc2)ccc1F	< 2
Nc1sc2c(ccc(=O)n2-c2c(F)cccc2F)c1C(=O)c1ccccc1	< 2
Cc1cc(C(=O)c2c(NC3CCNCC3)sc3c2ccc(=O)n3-c2ccccc2)ccc1F	< 2
CC(=O)Nc1sc2c(ccc(=O)n2-c2ccccc2F)c1C(=O)c1ccc(F)c(C)c1	< 2
CCOC(=O)c1sc2c(ccc(=O)n2CC2CC2)c1C(=O)c1ccccc1	< 2
Cc1cc(C(=O)c2c(NC3CCN(C)CC3)sc3c2ccc(=O)n3-c2ccccc2)ccc1F	< 2
Cc1cc(C(=O)c2c(NC(=O)N[C@@H]3CCNC3)sc3c2ccc(=O)n3-c2ccccc2)ccc1F	< 2
CC(=O)Nc1sc2c(ccc(=O)n2-c2ccccc2)c1C(=O)c1ccc(C)c(C)c1	< 2
CC(=O)Nc1sc2c(ccc(=O)n2CC2CC2)c1C(=O)c1ccccc1	< 2

Structure (SMILES)	IC50 [µM]
Cc1cc(C(=O)c2c(NC3CCN(C)CC3)sc3c2ccc(=O)n3-c2c(F)cccc2F)ccc1F	< 2
Cc1cc(C(=O)c2c(NC3CNC3)sc3c2ccc(=O)n3-c2ccccc2)ccc1F	< 2
CC(=O)Nc1sc2c(ccc(=O)n2-c2ccccc2Cl)c1C(=O)c1ccc(F)c(C)c1	< 2
Nc1sc2c(ccc(=O)n2-c2ccccc2)c1C(=O)c1ccccc1C(F)(F)F	< 2
Cc1cc(C(=O)c2c(NC(=O)C3CCN(C)CC3)sc3c2ccc(=O)n3-c2ccccc2F)ccc1F	< 2
Cc1cc(C(=O)c2c([N+](=O)[O-])sc3c2ccc(=O)n3-c2ccccc2Cl)ccc1F	< 2
Cc1cc(C(=O)c2c(NC(=O)N[C@@H]3CCN(C)C3)sc3c2ccc(=O)n3-c2ccccc2)ccc1F	< 2
Cc1ccc(-n2c(=O)ccc3c(C(=O)c4ccc(F)c(C)c4)c(NC4CNC4)sc32)cc1	< 2
Cc1ccc(-n2c(=O)ccc3c(C(=O)c4ccc(F)c(C)c4)c(N)sc32)cc1	< 2
CCN1CC[C@@H](NC(=O)Nc2sc3c(ccc(=O)n3-c3ccccc3)c2C(=O)c2ccc(F)c(C)c2)C1	< 2
Cc1cccc(C(=O)c2c(N)sc3c2ccc(=O)n3-c2ccccc2F)c1	< 2
Cc1cccc(C(=O)c2c(NC(=O)OC(C)(C)C)sc3c2ccc(=O)n3-c2ccccc2)c1	< 2
Cc1cc(C(=O)c2c(NC(=O)N3CCN(C)CC3)sc3c2ccc(=O)n3-c2ccccc2)ccc1F	< 2
Cc1cc(C(=O)c2c(NC(=O)NC(C)(C)CO)sc3c2ccc(=O)n3-c2ccccc2)ccc1F	< 2
Cc1cc(C(=O)c2c(N[C@@H]3CCNC3)sc3c2ccc(=O)n3-c2ccccc2)ccc1F	< 2
Nc1sc2c(ccc(=O)n2-c2ccccc2)c1C(=O)c1ccc(F)cc1F	< 2
CN1CCC(Nc2sc3c(ccc(=O)n3-c3ccccc3)c2C(=O)c2ccc(F)c(Cl)c2)CC1	< 2
Nc1sc2c(ccc(=O)n2-c2ccccc2)c1C(=O)c1cccc(OC(F)(F)F)c1	< 2
Cc1cc(C(=O)c2c(NC3CCN(C)CC3)sc3c2ccc(=O)n3-c2ccc(F)cc2)ccc1F	< 2
Cc1cccc(C(=O)c2c(N)sc3c2ccc(=O)n3-c2ccccc2Cl)c1	< 2

The next lines start with the values.

IC50 [µM]	Structure (SMILES)
< 2	Cc1ccccc1C(=O)c1c(N)sc2c1ccc(=O)n2-c1ccccc1
< 2	O=C(c1ccccc1)c1c(NC2CCNCC2)sc2c1ccc(=O)n2-c1ccccc1
< 2	N#Cc1ccccc1C(=O)c1c(N)sc2c1ccc(=O)n2-c1ccccc1
< 2	O=C(Nc1sc2c(ccc(=O)n2-c2ccccc2)c1C(=O)c1ccccc1)N[C@H]1CCNC1
< 2	C[C@@H](Nc1sc2c(ccc(=O)n2-c2ccccc2)c1C(=O)c1ccccc1)C(N)=O
< 2	Cc1cccc(C(=O)c2c(C#N)sc3c2ccc(=O)n3-c2ccccc2)c1
< 2	Nc1sc2c(ccc(=O)n2-c2ccccc2)c1C(=O)c1cccc(OC(F)F)c1
< 2	CCOC(=O)c1sc2c(ccc(=O)n2-c2ccccc2)c1C(=O)c1ccc(F)c(C)c1
< 2	Cc1cccc(C(=O)c2c(C(=O)N3CCC3)sc3c2ccc(=O)n3-c2ccccc2)c1
< 2	NC(=O)c1sc2c(ccc(=O)n2-c2ccccc2)c1C(=O)c1cccc(Cl)c1
< 2	CC(C)N1CCC(Nc2sc3c(ccc(=O)n3-c3ccccc3)c2C(=O)c2ccccc2)C1 (stereo not drawn)
< 2	CN(C)C1CN(c2sc3c(ccc(=O)n3-c3ccccc3)c2C(=O)c2ccccc2)C1
< 2	CC(C)(CO)NC(=O)c1sc2c(ccc(=O)n2-c2ccccc2)c1C(=O)c1ccccc1
< 2	Nc1sc2c(ccc(=O)n2-c2ccccc2)c1C(=O)c1ccccc1F
< 2	N[C@H]1CC[C@H](Nc2sc3c(ccc(=O)n3-c3ccccc3)c2C(=O)c2ccccc2)CC1
< 2	O=C(c1ccccc1)c1c(C(=O)N2CCOCC2)sc2c1ccc(=O)n2-c1ccccc1
< 2	Cc1cccc(C(=O)c2c(NC(=O)NCC(C)(C)O)sc3c2ccc(=O)n3-c2ccccc2)c1
< 2	COc1cccc(C(=O)c2c(NC3CCN(C)CC3)sc3c2ccc(=O)n3-c2ccccc2)c1
< 2	O=C(c1ccccc1)c1c(NCCN2CCCC2)sc2c1ccc(=O)n2-c1ccccc1
< 2	O=C(c1ccccc1)c1c(N[C@@H]2CCCNC2)sc2c1ccc(=O)n2-c1ccccc1

IC50 [µM]	Structure (SMILES)
< 2	Nc1sc2c(ccc(=O)n2-c2ccccc2)c1C(=O)c1ccc(F)cc1
< 2	Cc1cccc(C(=O)c2c(NC3CN(C)C3)sc3c2ccc(=O)n3-c2ccccc2)c1
< 2	O=C(c1ccccc1)c1c(NC2CCCNC2)sc2c1ccc(=O)n2-c1ccccc1 (stereo not drawn)
< 2	Nc1sc2c(ccc(=O)n2-c2ccccc2)c1C(=O)c1ccccn1
< 2	CN1CC(Nc2sc3c(ccc(=O)n3-c3ccccc3)c2C(=O)c2ccccc2)C1
< 2	CC(=O)Nc1sc2c(ccc(=O)n2-c2ccccc2)c1C(=O)c1ccccc1C#N
< 2	N[C@H]1CCN(C(=O)Nc2sc3c(ccc(=O)n3-c3ccccc3)c2C(=O)c2ccccc2)C1
< 2	Cc1cccc(C(=O)c2c(NC3CCNCC3)sc3c2ccc(=O)n3-c2ccccc2)c1
< 2	CC(C)(C)OC(=O)Nc1sc2c(ccc(=O)n2-c2ccccc2)c1C(=O)c1ccccc1
< 2	Cc1cccc(C(=O)c2c(C(N)=O)sc3c2ccc(=O)n3-c2ccccc2)c1
< 2	CCN1CCC(C(=O)Nc2sc3c(ccc(=O)n3-c3ccccc3)c2C(=O)c2ccccc2)CC1
< 2	CN1CCC[C@H]1C(=O)Nc1sc2c(ccc(=O)n2-c2ccccc2)c1C(=O)c1ccccc1
< 2	Cc1cccc(C(=O)c2c(NC(N)=O)sc3c2ccc(=O)n3-c2ccccc2)c1
< 2	CN(C)[C@H]1CCN(C(=O)Nc2sc3c(ccc(=O)n3-c3ccccc3)c2C(=O)c2ccccc2)C1
< 2	Nc1sc2c(ccc(=O)n2-c2ccccc2)c1C(=O)c1ccccc1Cl
< 2	CC(=O)Nc1sc2c(ccc(=O)n2-c2ccccc2)c1C(=O)c1cccc(Br)c1
< 2	CN1CCC[C@H](Nc2sc3c(ccc(=O)n3-c3ccccc3)c2C(=O)c2ccccc2)C1
< 2	CC(C)N1CCC(Nc2sc3c(ccc(=O)n3-c3ccccc3)c2C(=O)c2ccccc2)CC1
< 2	Cc1ccc(C(=O)c2c(N)sc3c2ccc(=O)n3-c2ccccc2)cc1
< 2	Nc1sc2c(ccc(=O)n2-c2ccccc2)c1C(=O)c1cccc(Cl)c1

IC50 [µM]	Structure (SMILES)
< 2	Nc1sc2c(ccc(=O)n2-c2ccccc2Cl)c1C(=O)c1ccccc1
< 2	COc1cccc(C(=O)c2c(NC(C)=O)sc3c2ccc(=O)n3-c2ccccc2)c1
< 2	CN1CC[C@H](Nc2sc3c(ccc(=O)n3-c3ccccc3)c2C(=O)c2ccccc2)C1
< 2	CC(=O)Nc1sc2c(ccc(=O)n2-c2ccccc2)c1C(=O)c1cccc(Cl)c1
< 2	Cc1cc(C(=O)c2c(C(N)=O)sc3c2ccc(=O)n3-c2ccccc2)ccc1F
< 2	O=C(c1ccccc1)c1c(C(=O)N2CCC[C@H]2CO)sc2c1ccc(=O)n2-c1ccccc1
< 2	Cc1cccc(C(=O)c2c(N3CCCCC3)sc3c2ccc(=O)n3-c2ccccc2)c1
< 2	Nc1sc2c(ccc(=O)n2-c2cccnc2)c1C(=O)c1ccccc1
< 2	Cc1cccc(C(=O)c2c(NC3CCN(C(C)C)CC3)sc3c2ccc(=O)n3-c2ccccc2)c1
< 2	N#Cc1cccc(C(=O)c2c(N)sc3c2ccc(=O)n3-c2ccccc2)c1
< 2	NC(=O)c1sc2c(ccc(=O)n2-c2ccccc2)c1C(=O)c1ccc(F)cc1F
< 2	NC(=O)c1sc2c(ccc(=O)n2-c2ccccc2)c1C(=O)c1ccc(F)c(Cl)c1
< 2	O=C(c1ccccc1)c1c(C(=O)N2CCCC2)sc2c1ccc(=O)n2-c1ccccc1
< 2	CN1CCC(C(=O)Nc2sc3c(ccc(=O)n3-c3ccccc3Cl)c2C(=O)c2ccccc2)CC1
< 2	CN(C)CC(C)(C)CNc1sc2c(ccc(=O)n2-c2ccccc2)c1C(=O)c1ccccc1
< 2	CC(=O)Nc1sc2c(ccc(=O)n2-c2ccccc2)c1C(=O)c1cccc(OC(F)(F)F)c1
< 2	CC(C)N[C@H]1CCN(C(=O)Nc2sc3c(ccc(=O)n3-c3ccccc3)c2C(=O)c2ccccc2)C1
< 2	CC(=O)Nc1sc2c(ccc(=O)n2-c2ccccc2)c1C(=O)c1cccc(F)c1
